Laboratory results published in patent publication US20260138961A1, “MODULATORS OF MITOCHONDRIAL DNA REPLICATION” (Pretzel Therapeutics, Inc., priority 2022, published 2026).

Molecular target: T1, POLγA:G848S (Homo sapiens, UniProt P54098, G848S)
T1 sequence (P54098 1-1239 G848S): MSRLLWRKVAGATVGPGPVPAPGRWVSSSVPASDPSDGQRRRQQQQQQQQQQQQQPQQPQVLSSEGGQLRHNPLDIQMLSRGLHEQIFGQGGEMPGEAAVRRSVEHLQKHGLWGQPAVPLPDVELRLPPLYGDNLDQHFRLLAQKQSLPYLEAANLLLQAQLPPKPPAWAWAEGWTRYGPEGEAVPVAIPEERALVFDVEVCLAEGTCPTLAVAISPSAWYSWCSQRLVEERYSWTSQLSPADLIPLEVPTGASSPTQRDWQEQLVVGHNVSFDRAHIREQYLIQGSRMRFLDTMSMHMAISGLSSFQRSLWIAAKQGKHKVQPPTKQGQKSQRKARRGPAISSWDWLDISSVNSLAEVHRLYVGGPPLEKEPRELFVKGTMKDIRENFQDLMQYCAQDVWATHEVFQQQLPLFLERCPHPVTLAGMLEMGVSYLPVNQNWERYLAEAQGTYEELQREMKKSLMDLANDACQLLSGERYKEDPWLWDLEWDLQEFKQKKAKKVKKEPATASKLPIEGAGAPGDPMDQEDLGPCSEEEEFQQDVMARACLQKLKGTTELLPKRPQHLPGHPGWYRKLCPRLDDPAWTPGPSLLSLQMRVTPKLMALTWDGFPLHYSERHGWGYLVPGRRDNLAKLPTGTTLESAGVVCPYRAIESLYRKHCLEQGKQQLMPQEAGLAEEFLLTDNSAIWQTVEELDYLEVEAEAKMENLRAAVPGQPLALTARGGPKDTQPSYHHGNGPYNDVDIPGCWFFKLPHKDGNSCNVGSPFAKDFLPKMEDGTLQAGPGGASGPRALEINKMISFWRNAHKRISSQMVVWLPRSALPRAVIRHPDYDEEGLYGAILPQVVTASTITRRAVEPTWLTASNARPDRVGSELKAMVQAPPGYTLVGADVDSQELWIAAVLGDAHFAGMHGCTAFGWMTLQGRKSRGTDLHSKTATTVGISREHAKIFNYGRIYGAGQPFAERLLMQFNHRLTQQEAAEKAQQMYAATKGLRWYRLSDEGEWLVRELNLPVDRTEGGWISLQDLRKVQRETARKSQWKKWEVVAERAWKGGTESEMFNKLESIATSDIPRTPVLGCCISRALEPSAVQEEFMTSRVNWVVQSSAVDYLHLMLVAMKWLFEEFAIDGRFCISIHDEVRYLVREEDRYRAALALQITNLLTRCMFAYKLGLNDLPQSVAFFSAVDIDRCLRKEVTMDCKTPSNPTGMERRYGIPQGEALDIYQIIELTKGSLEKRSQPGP
T1 sequence (Q9UHN1 1-485 partner): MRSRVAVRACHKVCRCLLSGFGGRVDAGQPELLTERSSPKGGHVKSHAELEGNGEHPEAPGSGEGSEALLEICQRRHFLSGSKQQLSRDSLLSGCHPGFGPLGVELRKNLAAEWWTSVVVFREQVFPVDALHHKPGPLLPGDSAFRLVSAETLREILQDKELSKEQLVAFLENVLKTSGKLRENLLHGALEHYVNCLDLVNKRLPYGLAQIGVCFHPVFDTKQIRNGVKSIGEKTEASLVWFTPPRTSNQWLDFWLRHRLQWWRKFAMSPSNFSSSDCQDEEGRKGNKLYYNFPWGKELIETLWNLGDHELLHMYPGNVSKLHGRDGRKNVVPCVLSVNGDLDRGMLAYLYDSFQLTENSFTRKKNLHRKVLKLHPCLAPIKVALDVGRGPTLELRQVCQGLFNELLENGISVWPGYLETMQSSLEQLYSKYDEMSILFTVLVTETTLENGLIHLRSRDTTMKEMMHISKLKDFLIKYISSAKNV
Experiment: DNA polymerization assay, POLγA:G848S mutant
Assay type: biochemical
Conditions: stimulation of polymerase activity, primed M13mp18 ssDNA, 37° C. 2 hours; read-out: G848S AC50

Compound | AC50
Cc1cc(S(=O)(=O)Nc2csc(C(=O)N(CC(N)=O)C3CCCC3)n2)c(C)cc1Cl [Example 177, N-(2-amino-2-oxoethyl)-4-((4-chloro-2,5-dimethylphenyl)sulfonamido)-N-cyclopentylthiazole-2-carboxamide] | > 100 µM
Cc1cc(S(=O)(=O)Nc2nc(-c3ccccc3)n(C)n2)c(C)cc1Cl [Example 180, 4-chloro-2,5-dimethyl-N-(1-methyl-5-phenyl-1H-1,2,4-triazol-3-yl)benzenesulfonamide] | > 10 µM
Cc1ccc(C)c(S(=O)(=O)Nc2cccc(-c3nccs3)c2)c1 [Example 60] | 2 µM
Cc1cc(S(=O)(=O)Nc2cc(C(=O)N3CCC[C@H]3C)ccc2F)c(C)cc1Cl [Example 50, (R)-4-chloro-N-(2-fluoro-5-(2-methylpyrrolidine-1-carbonyl)phenyl)-2,5-dimethylbenzenesulfonamide] | 11 µM
Cc1cc(S(=O)(=O)Nc2cccc(C(=O)N[C@H](C)c3ccccc3)c2)c(C)cc1Cl [Example 48, (R)-3-((4-chloro-2,5-dimethylphenyl)sulfonamido)-N-(1-phenylethyl)benzamide] | 13 µM
Cc1cc(S(=O)(=O)Nc2cccc(-c3cc(C4CC4)[nH]n3)c2)c(C)cc1Cl [Example 64, 4-chloro-N-(3-(5-cyclopropyl-1H-pyrazol-3-yl)phenyl)-2,5-dimethylbenzenesulfonamide] | 1 µM
Cc1cc(S(=O)(=O)N[C@H]2CCN(c3ccccc3)C2)c(C)cc1Cl [Example 158, (S)-4-chloro-2,5-dimethyl-N-(1-phenylpyrrolidin-3-yl)benzenesulfonamide] | > 100 µM
Cc1cc(S(=O)(=O)Nc2cccc3c2CC(=O)N3)c(C)cc1Cl [Example 36, 4-chloro-2,5-dimethyl-N-(2-oxoindolin-4-yl)benzenesulfonamide] | > 100 µM
Cc1ccc(C)c(S(=O)(=O)Nc2cccc(C(=O)N3CCSCC3C(N)=O)c2)c1 (centres unmarked) [Example 41, 4-(3-((2,5-dimethylphenyl)sulfonamido)benzoyl) thiomorpholine-3-carboxamide] | 21 µM
Cc1cc(S(=O)(=O)Nc2csc(-n3cccn3)n2)c(C)cc1Cl [Example 178, N-(2-(1H-pyrazol-1-yl)thiazol-4-yl)-4-chloro-2,5-dimethylbenzenesulfonamide] | 1 µM
Cc1cc2cc(NS(=O)(=O)c3cc(C)c(Cl)cc3C)ccc2[nH]1 [Example 184, 4-chloro-2,5-dimethyl-N-(2-methyl-1H-indol-5-yl)benzenesulfonamide] | 24 µM
Cc1cc(S(=O)(=O)Nc2csc(C(=O)N3CCC[C@H]3C)n2)c(C)cc1Cl [Example 174, (R)-4-chloro-2,5-dimethyl-N-(2-(2-methylpyrrolidine-1-carbonyl)thiazol-4-yl)benzenesulfonamide] | 0.4 µM
Cc1cc(S(=O)(=O)Nc2cccc(C(=O)N3CCN(C)C[C@H]3C)c2)c(C)cc1Cl [Example 54, (R)-4-chloro-N-(3-(2,4-dimethylpiperazine-1-carbonyl)phenyl)-2,5-dimethylbenzenesulfonamide] | 21 µM
Cc1cc(S(=O)(=O)N(C)c2cccc(-c3nccs3)c2)c(C)cc1Cl [Example 22, 4-chloro-N,2,5-trimethyl-N-(3-(thiazol-2-yl)phenyl)benzenesulfonamide] | > 100 µM
COc1ccc(S(=O)(=O)Nc2cccc(C(=O)N3CCSCC3C#N)c2)cc1 (centres unmarked) [Example 34, N-(3-(3-cyanothiomorpholine-4-carbonyl)phenyl)-4-methoxybenzenesulfonamide] | 37 µM

Continued, values first:

AC50 | Compound
14 µM | Cc1cc(S(=O)(=O)Nc2cccc(C(=O)N3CCC(F)(F)C3)c2)c(C)cc1Cl [Example 160, 4-chloro-N-(3-(3,3-difluoropyrrolidine-1-carbonyl)phenyl)-2,5-dimethylbenzenesulfonamide]
30 µM | Cc1cc(S(=O)(=O)Nc2cccc(C(=O)N(C)C(C)CO)c2)c(C)cc1Cl (single isomer, unassigned) [Example 15, 3-((4-chloro-2,5-dimethylphenyl)sulfonamido)-N-(1-hydroxypropan-2-yl)-N-methylbenzamide]
2 µM | Cc1cc(S(=O)(=O)Nc2csc(C3CCOCC3)n2)c(C)cc1Cl [Example 167, 4-chloro-2,5-dimethyl-N-(2-(tetrahydro-2H-pyran-4-yl)thiazol-4-yl)benzenesulfonamide]
22 µM | CC(=O)N1CCN(C(=O)c2cccc(NS(=O)(=O)c3cc(C)ccc3C)c2)CC1 [Example 30, N-(3-(4-acetylpiperazine-1-carbonyl)phenyl)-2,5-dimethylbenzenesulfonamide]
39 µM | COCCNC(=O)c1cccc(NS(=O)(=O)c2cc(C)c(Cl)cc2C)c1 [Example 47, 3-((4-chloro-2,5-dimethylphenyl)sulfonamido)-N-(2-methoxyethyl)benzamide]
> 100 µM | Cc1ccc(C)c(S(=O)(=O)Nc2cccc(C(=O)N3CCN(C)CC3)c2)c1 [Example 31, 2,5-dimethyl-N-(3-(4-methylpiperazine-1-carbonyl)phenyl)benzenesulfonamide]
> 100 µM | Cc1ccc(C)c(S(=O)(=O)Nc2cccc(C(=O)N(C)C)c2)c1 [Example 25, 3-((2,5-dimethylphenyl)sulfonamido)-N,N-dimethylbenzamide]
> 100 µM | Cc1cc(S(=O)(=O)Nc2cc(-c3nccs3)ccc2F)c(C)cc1Cl [Example 61, 4-chloro-N-(2-fluoro-5-(thiazol-2-yl)phenyl)-2,5-dimethylbenzenesulfonamide]
2 µM | Cc1csc(-c2cccc(NS(=O)(=O)c3cc(C)c(Cl)cc3C)c2)n1 [Example 20, 4-chloro-2,5-dimethyl-N-(3-(4-methylthiazol-2-yl)phenyl)benzenesulfonamide]
0.5 µM | Cc1cc(S(=O)(=O)Nc2csc(-c3cnn(C)c3)n2)c(C)cc1Cl [Example 183, 4-chloro-2,5-dimethyl-N-(2-(1-methyl-1H-pyrazol-4-yl)thiazol-4-yl)benzenesulfonamide]
> 100 µM | Cc1ccccc1S(=O)(=O)Nc1cccc(C(=O)N2CCOC[C@@H]2C)c1 [Example 23, (S)-2-methyl-N-(3-(3-methylmorpholine-4-carbonyl)phenyl)benzenesulfonamide]
> 100 µM | Cc1cc(S(=O)(=O)Nc2ccc(F)c(-c3nccs3)c2)c(C)cc1Cl [Example 63, 4-chloro-N-(4-fluoro-3-(thiazol-2-yl)phenyl)-2,5-dimethylbenzenesulfonamide]
> 100 µM | Cc1ccc(C)c(S(=O)(=O)Nc2ccc(C(=O)N[C@@H](C)C3CC3)cc2)c1 [Example 39, (S)-N-(1-cyclopropylethyl)-4-((2,5-dimethylphenyl)sulfonamido)benzamide]
27 µM | Cc1cc(S(=O)(=O)Nc2cccc(C(N)=O)c2)c(C)cc1Cl [Example 44, 3-((4-chloro-2,5-dimethylphenyl)sulfonamido)benzamide]
> 10 µM | Cc1cc(S(=O)(=O)Nc2csc(C(=O)N(CC(N)=O)C3CCCCC3)n2)c(C)cc1Cl [Example 179, N-(2-amino-2-oxoethyl)-4-((4-chloro-2,5-dimethylphenyl)sulfonamido)-N-cyclohexylthiazole-2-carboxamide]
51 µM | Cc1ccc(C)c(S(=O)(=O)Nc2ccc(C(=O)N3CCCC[C@H]3C)s2)c1 [Example 43, (R)-2,5-dimethyl-N-(5-(2-methylpiperidine-1-carbonyl)thiopheN-2-yl)benzenesulfonamide]
49 µM | Cc1nc2ccc(NS(=O)(=O)c3cc(C)c(Cl)cc3C)cc2o1 [Example 70, 4-chloro-2,5-dimethyl-N-(2-methylbenzo[d]oxazol-6-yl)benzenesulfonamide]
